Test results as given in paper PMC3753236, “Glucocorticosteroids in Nano-Sterically Stabilized Liposomes Are Efficacious for Elimination of the Acute Symptoms of Experimental Cerebral Malaria” (PLoS ONE, 2013).

Assays:
[1] = system: non-chloroquine resistant P. falciparum; assay: P. falciparum culture, 3H-hypoxanthine incorporation; format: cell-based, Plasmodium falciparum; settings: at concentrations up to 33 µM
Protocol: The parasite was grown in a human red blood cell culture (RPMI 1640, 7.5% bicarbonate, 50 µM hypoxanthine, 50 µg/ml gentamycin, and 7.5% human plasma) at 1% hematocrit and 2% parasitemia. Cultures containing predominantly ring forms were used; synchronization of the culture was performed if trophozoites represented more than 1–2% of the various developmental stages. Briefly, the culture was centrifuged and the supernatant replaced by 5% (isotonic) sorbitol. After 5 minutes at 37°C the culture was centrifuged again and the supernatant replaced by culture medium to obtain a final 1% hematocrit.
Drug testing was performed in 96-well microtiter plates incubated at 37°C in a 5% O2, 5% CO2, and 90% N2 gas mixture for 72 hours. After 48 hours, 1 µCi ^3H-hypoxanthine was added to each well and the plates were read the next day using a scintillation counter.

[2] = system: inflammation-related genes (CCL5, CXCL9, CXCL10, ICAM-1, IFNγ, IL-4); assay: Brain expression of inflammation-related genes by qPCR; format: in vivo, C57Bl/6 mice; settings: day 9 p.i., treatment days 3, 5, 7, 9 p.i., relative to non-infected mice, normalized to HPRT
Protocol: For total RNA extraction, samples were homogenized in Tri-reagent (Sigma) and the homogenate separated into aqueous and organic phases by chloroform addition and centrifugation. RNA was precipitated from the aqueous phase by addition of isopropanol, washed with ethanol, and solubilized in UPW.
cDNA synthesis was performed using a High Capacity cDNA Reverse Transcription kit (Applied Biosystems, Warrington, UK). cDNA was amplified from 1 µg RNA from each sample with the addition of 2 µl Multiscribe™ reverse transcriptase (RT), 2 µl RNAse inhibitor, 4 µl random primers, 4 µl RT buffer, and 1.6 µl dNTP's according to the manufacturer's instructions for first-strand cDNA synthesis. UPW was added for a final sample volume of 20 µl. cDNA samples were stored at −20°C.
Real-time transcription-polymerase chain reaction (rtPCR) was carried out using Applied Biosystems' 9800 Fast Thermal Cycler. The reaction mix for rtPCR analysis consisted of 1 µl cDNA, 300 nM forward (f) and reverse (r) primers (Syntezza, Jerusalem, Israel), and 7.5 µl manufactured master mix buffer containing nucleotides, Taq polymerase, and SYBR Green (Applied Biosystems) in a total volume of 15 µl. Gene amplification included one stage of 10 min at 95°C followed by 40 cycles of a two-step loop: 20 s at 95°C, and 1 min at 60°C. The fold-change in gene expression was normalized to the endogenous gene hypoxanthine phosphoribosyltransferase (HPRT). […] Results were considered significant if the observed fold-change was at least ×2 relative to non-infected mice. Primer sequences (5′-3′) were as follows: CCL5: […] (f), […] (r); ICAM-1: […] (f); […] (r); IFN-γ: […] (f), […] (r); IL-4: […] (f), […] (r); CXCL9: […] (f), […] (r); CXCL10: […] (f), […] (f), […] (r).

[3] = system: Plasmodium berghei ANKA (PbAus); assay: Late-stage treatment of ECM followed by artemisone, PbAus-infected C57Bl/6 mice
Protocol: (§1) Plasmodium berghei ANKA (PbA; PbA MRA-311, CDC, Atlanta, GA, USA) was maintained in vivo by serial transfer of parasitized erythrocytes (PE) from infected to naïve mice. Experiments were also performed using a second strain of PbA, similarly maintained, and designated PbAus in the text (courtesy of Prof. G. Grau, University of Sydney, Australia).
(§2) Parasitemia was monitored by thin blood smears prepared from tail blood. These were stained with a 25% Giemsa solution, examined under a light microscope, and parasitemia determined as the percent of infected red blood cells per 10,000 erythrocytes. Disease severity was determined according to scoring of neurological symptoms and changes in weight and temperature, as previously described […] Parasitemias above 20% and the absence of neurological symptoms indicated severe anemic malaria.
(§3) For early ECM treatment, injections were given on days 3, 5, 7, and 9 p.i; for late treatment, treatment was given every other day, starting on day 5 p.i. for a total of at least two injections. Infected, non-treated control mice were injected with 5% dextrose or empty nSSL. Clinical signs and parasitemias were monitored and disease severity scored as described […] At each time-point, at least 3 mice from each group were chosen at random, deeply anesthetized, and brains were removed following intracardial perfusion (using saline, if organs were destined for real-time (rt)PCR analysis, or saline/formalin, if organs were destined for histopathological analysis). Organs destined for rtPCR analysis were snap-frozen in liquid nitrogen and stored at −80°C until use. Organs destined for immunohistology were immediately immersed in cryoprotectant solution (see below).

[4] = system: Plasmodium berghei ANKA (PbA); assay: Early treatment of experimental cerebral malaria (ECM), ICR mice infected with PbA; settings: 10 mg/kg/d on days 3, 5, 7, 9 p.i.
Protocol: as §1, §2
as §3, with “described […] Surviving mice were treated with 2×10 mg/kg/d artemisone by intraperitoneal injection in order to achieve cure; mice were monitored for four weeks post-artemisone treatment in order to allow detection of possible late recrudescence.” for “described”

[5] = system: PbAus-infected C57Bl/6 mice; assay: Brain edema, Evans blue dye extravasation; format: in vivo; settings: treatment days 3, 5, 7, 9 p.i.
Protocol: BBB disruption was assessed by quantifying Evans blue dye extravasation. 200 µl 2% (w/v) Evan's blue solution in PBS was injected i.v. to pre-warmed mice. After 2 h mice were anesthetized and perfused intracardially with ice-cold PBS. Brains were extracted, homogenized in 1 ml PBS, and centrifuged; the supernatant was read by spectrophotometry at 510 nm. Values were normalized to the values from the brains of non-infected mice similarly injected.

[6] = other disease models; ref [5]; cited from earlier work

C[C@H]1C[C@H]2[C@@H]3CCC4=CC(=O)C=C[C@]4(C)[C@@]3(F)[C@@H](O)C[C@]2(C)[C@@]1(O)C(=O)COC(=O)CCC(=O)O [BMS, β-methasone hemisuccinate]
IC50 (effect against cultured P. falciparum) [1]: no effect ^*
IC50 (effect against cultured P. falciparum) ([1]; listed as Free BMS): not effective
CCL5 relative expression ± SEM [2]: 45.7±7.6
CXCL9 relative expression ± SEM [2]: 39.3±11.1
CXCL10 relative expression ± SEM [2]: 18.2±2.4
ICAM-1 relative expression ± SEM [2]: 3.3±0.7
IFNγ relative expression ± SEM [2]: 105.1±37.7
IL-4 relative expression ± SEM [2]: 1.5±0.3
Mice that died of acute toxicity ([3]; 20 mg/kg on days 5, 7, 9 p.i., upon second or third injection): 6/10
Average clinical score on day 7 p.i. ([3]; 20 mg/kg, treatment started day 5 p.i.): 4.2±2.2
ECM rate (incidence of CM) [4]: 67%
Edema, ng Evan's blue/brain ([5]; day 5 p.i.): 263±95 ng Evan's blue/brain
Edema, ng Evan's blue/brain ([5]; day 9 p.i.): 263±6 ng Evan's blue/brain
Potency of BMS relative to MPS [6]: five
